Data taken from patent US12440476B2, “Agents that target telomerase reverse transcriptase (TERT) for treating cancer and sensitizing cancer cells to genotoxic therapy” (Northwestern University, priority 2022, dated 2025).

Assays:
CT26 cells [1] = assay: Clonogenicity assay (inhibitor alone); format: cell-based, mouse; conditions: 1 μM NU-1, 2 μM MST, 20 μM BIBR
Protocol: MCF7, Saos-2, or CT26 cells were seeded in 6-well plates at 100 cells per well in triplicate and allowed to attach overnight. MCF7 or CT26 cells were then treated with DMSO vehicle or TERT inhibitors in final concentration of 0.25, 0.5, 0.75, 1, 2 μM for NU-1, 2.5, 5, 7.5, 10, 20 μM for BIBR 1532, or 1, 2, 3, 4, 5 μM for MST-312. Saos-2 cells were treated with DMSO vehicle or TERT inhibitors in final concentration of 0.25, 0.5, 0.75, 1, 2 μM for NU-1 or 2.5, 5, 10, 20, 40 μM for BIBR 1532. The final volume of cell culture medium was 3 mL per well. MCF7 and Saos-2 cells were continuously cultured for 3 weeks and CT26 for 2 weeks in the presence of TERT inhibitors, fixed in methanol for 5 min, then stained with 0.5% crystal violet for 10 min at room temperature. After washing with water, the plates were dried at room temperature and imaged with an iBright Imaging System (Thermo Fisher Scientific).

MCF7 cells [2] = assay: Clonogenic survival after irradiation (radiosensitivity); format: cell-based, human; conditions: MCF7 cells; NU-1 0.5 μM, BIBR 1532 10 μM, MST-312 1 μM for 1 h prior to IR; 2 Gy
Protocol: (§1) To assess radiosensitivity, MCF7, Saos-2, or CT26 cells were seeded in 6-well plates at 100 cells per well in triplicate, allowed to attach overnight and treated with DMSO or TERT inhibitors at subtoxic concentrations for 1 h prior to IR. MCF7 cells were treated with 0.5 μM NU-1, 10 μM BIBR 1532, or 1 μM MST-312, Saos-2 cells with 1 μM NU-1 or 20 μM BIBR 1532 and CT26 cells with 1 μM NU-1, 20 μM BIBR 1532 or 2 μM MST-312. Doses of 0, 1, 2, 3, 4, or 5 Gy were applied using a GammaCell ^60Co γ-ray source (Nordion) at a dose rate of 7.09 cGy/sec. After that MCF7 and Saos-2 cells were cultured for 3 weeks and CT26 for 2 weeks, then fixed and stained with crystal violet. Colonies of at least 50 cells were counted. Data from three independent biological replicates were acquired. The surviving fraction (SF) was calculated using the following formula: […]

Saos-2 cells = assay: as above; format: cell-based, human; conditions: NU-1 1 μM
Protocol: as §1

CT26 cells [3] = assay: as above; format: cell-based, mouse; conditions: for Sensitization of CT26 cells to radiation: non-toxic doses; for Mean SF2 (surviving fraction at 2 Gy): CT26 cells, NU-1 1 μM, BIBR 1532 20 μM, MST-312 2 μM for 1 h prior to IR
Protocol: as §1

CT26 cells [4] = assay: Senescence-associated beta-galactosidase (SA-β-Gal) assay; format: cell-based, mouse; conditions: non-toxic doses, 10 Gy, 5 days
Protocol: (§2) MCF7, Saos-2, or CT26 cells were seeded at 3×10^4 per well in 6-well plates and allowed to attach to plate overnight. For TERT inhibition, MCF7 cells were treated with DMSO vehicle, NU-2 (0.5 μM), NU-1 (0.5 μM), chrolactomycin (0.5 μM), BIBR 1532 (10 μM), or MST-312 (1 μM) for 1 h prior to IR, Saos-2 cells were treated with DMSO vehicle, NU-2 (1 μM), NU-1 (1 μM), chrolactomycin (1 μM), BIBR 1532 (20 μM), or MST-312 (1 μM) for 1 h prior to IR, and CT26 cells were treated with MSO vehicle, NU-2 (1 μM), NU-1 (1 μM), chrolactomycin (1 μM), BIBR 1532 (20 μM), or MST-312 (2 μM) for 1 h prior to IR. Then MCF7 and Saos-2 cells were irradiated with 0 or 6 Gy and CT26 cells with 0 or 10 Gy. After IR, MCF7 and Saos-2 cells were continuously cultured for 7 days and CT26 for 5 days, then fixed in 2% PFA and stained with staining buffer (1 mg/ml X-Gal (Golden Bio), 40 mM citric acid/sodium phosphate, 150 mM NaCl, 2 mM MgCl2, 3.3 mM K3[Fe(CN)6], 3.3 mM K4[Fe(CN)6], pH=6) for 16 h at 37° C., then washed with warm PBS three times and imaged in PBS within a week. Images were captured on a Zeiss Axiovert 200M microscope with a 20× Plan-NeoFluar objective and Axiocam digital camera. SA-β-Gal-positive and -negative cells were counted in more than 5 fields, yielding an average percentage indicated on each SA-β-Gal image as mean±SD. Three replicates were performed.
To examine the roles for STING, CT26 cells were seeded at 2×10^4 per well in 12-well plates and allowed to attach overnight. STING inhibitor C178 (0 or 4 μM) was added, followed by the addition of DMSO vehicle, NU-1 (1 μM), MST-312 (2 μM) or chrolactomycin (1 μM) for 1 h prior to 0 or 10 Gy. CT26 cells were cultured for 5 days, surviving cells were washed twice in PBS and cultured in fresh immune cell culture medium overnight. The CT26 cells were then cocultured with BMDCs for 12-16 h at a 1:2 ratio, and BMDCs were collected and analyzed after coculturing, as described above.

MCF7 cells [5] = assay: as above; format: cell-based, human
Protocol: as §2, with “For TERT inhibition, MCF7 cells were treated with DMSO vehicle, NU-2 (0.5 μM), NU-1 (0.5 μM), chrolactomycin (0.5 μM), BIBR 1532 (10 μM), or MST-312 (1 μM) for 1 h prior to IR, Saos-2 cells were treated with DMSO vehicle, NU-2 (1 μM), NU-1 (1 μM), chrolactomycin (1 μM), BIBR 1532 (20 μM), or MST-312 (1 μM) for 1 h prior to IR, and CT26 cells were treated with MSO vehicle, NU-2 (1 μM), NU-1 (1 μM), chrolactomycin (1 μM), BIBR 1532 (20 μM), or MST-312 (2 μM) for 1 h prior to IR.” left out

MCF7-FUCCI cells = assay: Time-lapse live-cell analysis of cell cycle; format: cell-based, human; conditions: 0.5 μM for 1 h, then 6 Gy, 6 days
Protocol: MCF7-FUCCI cells were seeded at 3×10^4 per well in 6-well plates, allowed to attach overnight, then treated with 0.5 μM NU-2 control, NU-1 or chrolactomycin for 1 h, followed by 6 Gy. Then, live-cell imaging was conducted using the IncuCyteS3. Phase contrast along with green and red channels were acquired at 20× magnification with scanning every 2 h for 6 days. 16 non-overlapping fields were captured for each well. Representative consecutive images were used to create the movies using Fiji (Schindelin et al., 2012).

CD8+ T cells = assay: In vitro T cell priming assay (CFSE dilution); format: cell-based, mouse; conditions: DCs stimulated by inhibitor treated and irradiated (10 Gy) CT26 cells; 5 days; NU-1 1 μM, MST 2 μM
Protocol: To evaluate effects of TERT on tumor immunogenicity, CT26 cells were seeded at […] per well in 12-well plates, allowed to attach overnight, and then treated with DMSO, NU-1 (1 μM), or MST-312 (2 μM) for 1 h, followed by 0 or 10 Gy. 5 days after IR, the media were removed, cells washed with PBS, and fresh immune cell culture medium added. CT26 cells were then cultured overnight, followed by coculturing with immature BMDCs for 12-16 h at a 1:2 ratio. After coculture, the suspension BMDCs were collected into round bottom FACS tubes, washed with PBS, and stained with Zombie yellow (1:1000, BioLegend) for 10 min at room temperature. […] After PBS washing, cells were resuspended in 300 μL Cell Staining Buffer and analyzed using a BD Fortessa 4-15 HTS Flow cytometer within 2 hours. Data were then analyzed by FlowJo software. […]
Splenocytes isolated from CT26 immunized mice were stained with 0.5 μM carboxyfluorescein succinimidyl ester (CFSE) (Thermo Fisher Scientific, Cat #C34554) for 10 min at room temperature (Quah et al., 2007). […] Cells were analyzed using a BD Fortessa 4-15 HTS flow cytometer and FlowJo software. […]

Row | SMILES | Tolerance in clonogenic assay (inhibitor alone) (CT26 cells [1]) | Mean SF2 (surviving fraction at 2 Gy) (MCF7 cells [2]) | Radiosensitization in clonogenic survival assay (Saos-2 cells; Saos-2 (telomerase negative), BIBR 20 μM) | Mean SF2 (surviving fraction at 2 Gy) (Saos-2 cells; Saos-2 cells, BIBR 1532 20 μM for 1 h prior to IR, 2 Gy) | Sensitization of CT26 cells to radiation (CT26 cells [3]) | Mean SF2 (surviving fraction at 2 Gy) (CT26 cells [3]) | Senescence induction by IR (CT26 cells [4]) | Enhancement of senescence after IR at low concentration (MCF7 cells [5]; 50 nM, 7 days after IR) | Surviving cells arrested with G1 marker expression and senescent morphology (MCF7-FUCCI cells) [%] | Proliferating CD8+ T cells (CD8+ T cells) [%] | SA-β-Gal+ cells (MCF7 cells [5]; 7 days after IR (6 Gy)) [%]
1 | C/C(=C\C(=O)Nc1ccccc1C(=O)O)c1ccc2ccccc2c1 [BIBR 1532] | non-toxic | 0.256 | Neither NU-1 nor BIBR displayed radiosensitization | 0.580 | had no similar effects | 0.727 | had no similar effects | – | – | – | –
2 | C=C1C(=O)[C@]2(OC)C(=O)O[C@@]34C[C@H](C)C(C(=O)O)=C[C@@H]3CCC[C@@H](C)C[C@@H](C)[C@H]1O[C@H]24 [CHRO, chrolactomycin, reference compound] | – | – | – | – | – | – | – | sufficient to enhance senescence after IR | ~80 | – | –
3 | O=C(Nc1cccc(NC(=O)c2cccc(O)c2O)c1)c1cccc(O)c1O [MST-312] | tolerated | 0.245 | – | – | sensitized CT26 cells to radiation | 0.407 | enhanced senescence induction by IR | – | – | 30.4 | –
4 | COC(=O)[C@@]1(C)C(=O)C[C@@H](C)O[C@H]1CCc1cn(Cc2ccc(F)cc2F)nn1 [NU-2] | – | – | – | – | – | – | – | – | ~40 | – | ~34
